This passage reports EC50 and IC50 results from ChEMBL document CHEMBL1201862, “PubChem BioAssay data set” (2004).

Activity calls are given as the source filed them.

Assay type in all cases: functional
The target in experiment [1] is T1, Apoptotic protease-activating factor 1 (Homo sapiens, UniProt O14727).
T1 sequence (O14727 whole entry): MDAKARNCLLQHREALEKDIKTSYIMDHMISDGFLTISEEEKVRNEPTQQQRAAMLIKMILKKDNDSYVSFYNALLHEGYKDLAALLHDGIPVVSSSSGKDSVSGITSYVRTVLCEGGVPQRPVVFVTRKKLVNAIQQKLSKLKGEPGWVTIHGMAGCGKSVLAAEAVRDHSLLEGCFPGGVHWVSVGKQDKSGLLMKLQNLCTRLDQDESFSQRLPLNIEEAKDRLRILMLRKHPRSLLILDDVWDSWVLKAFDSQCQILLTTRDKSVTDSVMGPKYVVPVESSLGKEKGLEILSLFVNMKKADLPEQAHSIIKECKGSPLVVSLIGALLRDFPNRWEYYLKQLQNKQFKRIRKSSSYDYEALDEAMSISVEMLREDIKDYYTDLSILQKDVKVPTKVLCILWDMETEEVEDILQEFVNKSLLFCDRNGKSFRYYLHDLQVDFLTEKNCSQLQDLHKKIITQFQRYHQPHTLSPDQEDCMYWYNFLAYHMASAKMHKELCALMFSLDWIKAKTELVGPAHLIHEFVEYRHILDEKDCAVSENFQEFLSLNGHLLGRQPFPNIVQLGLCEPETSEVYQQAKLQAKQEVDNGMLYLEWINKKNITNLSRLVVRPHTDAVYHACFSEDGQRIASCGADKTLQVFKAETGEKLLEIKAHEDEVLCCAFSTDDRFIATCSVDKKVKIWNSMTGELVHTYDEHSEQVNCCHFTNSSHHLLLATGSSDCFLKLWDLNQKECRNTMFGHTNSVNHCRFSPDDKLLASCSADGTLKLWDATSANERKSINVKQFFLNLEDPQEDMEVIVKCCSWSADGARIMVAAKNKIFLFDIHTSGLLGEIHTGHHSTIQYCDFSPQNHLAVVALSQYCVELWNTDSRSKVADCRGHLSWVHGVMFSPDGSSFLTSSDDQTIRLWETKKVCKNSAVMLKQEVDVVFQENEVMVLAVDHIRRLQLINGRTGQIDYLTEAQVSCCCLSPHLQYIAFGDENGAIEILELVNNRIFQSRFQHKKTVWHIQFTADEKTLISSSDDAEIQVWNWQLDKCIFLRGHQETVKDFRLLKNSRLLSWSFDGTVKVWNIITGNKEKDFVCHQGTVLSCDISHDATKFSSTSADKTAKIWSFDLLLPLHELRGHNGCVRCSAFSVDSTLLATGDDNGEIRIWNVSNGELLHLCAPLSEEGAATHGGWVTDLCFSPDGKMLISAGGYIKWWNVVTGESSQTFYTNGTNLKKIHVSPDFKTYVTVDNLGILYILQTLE
The experiment in a line: SAR analysis of small molecule Activators of Apaf-1 in a Fluorescent assay - set 2. The conditions noted are these: read-out: EC50_Mean.

The nature of experiment [2]: SAR analysis of small molecule activators of Apaf-1 using a LZ-Caspase-9/Caspase-3 Fluorescent Selectivity assay - Set 2. As to conditions: read-out: EC50_Mean.
Experiment [3] deals with T2, Neuropeptides B/W receptor type 1 (Homo sapiens, UniProt P48145).
T2 sequence (P48145 whole entry): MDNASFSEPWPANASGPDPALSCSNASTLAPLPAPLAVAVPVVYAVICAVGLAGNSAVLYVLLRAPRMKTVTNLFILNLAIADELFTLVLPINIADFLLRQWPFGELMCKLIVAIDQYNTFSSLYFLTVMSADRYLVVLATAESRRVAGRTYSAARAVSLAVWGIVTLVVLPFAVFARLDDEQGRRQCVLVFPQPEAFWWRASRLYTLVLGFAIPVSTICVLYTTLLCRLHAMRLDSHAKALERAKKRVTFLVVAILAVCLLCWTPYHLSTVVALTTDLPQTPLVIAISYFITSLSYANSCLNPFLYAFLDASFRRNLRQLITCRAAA
In words: human NPBW1 receptor blockade, IC50 – cell-based, fluorescence, dose response, set 6, late-stage follow-up (AID 588583).

In experiment [4] the target is Melanin-concentrating hormone receptor 1 (Homo sapiens, UniProt Q99705). The experiment in a line: Late-stage fluorescence-based counterscreen for antagonists of the G-protein coupled receptor 7 (GPR7): cell-based dose response assay to identify antagonists of the melanin-concentrating hormone receptor 1 (MCHR1) Set 6.
Sequence of Melanin-concentrating hormone receptor 1 (Q99705 whole entry): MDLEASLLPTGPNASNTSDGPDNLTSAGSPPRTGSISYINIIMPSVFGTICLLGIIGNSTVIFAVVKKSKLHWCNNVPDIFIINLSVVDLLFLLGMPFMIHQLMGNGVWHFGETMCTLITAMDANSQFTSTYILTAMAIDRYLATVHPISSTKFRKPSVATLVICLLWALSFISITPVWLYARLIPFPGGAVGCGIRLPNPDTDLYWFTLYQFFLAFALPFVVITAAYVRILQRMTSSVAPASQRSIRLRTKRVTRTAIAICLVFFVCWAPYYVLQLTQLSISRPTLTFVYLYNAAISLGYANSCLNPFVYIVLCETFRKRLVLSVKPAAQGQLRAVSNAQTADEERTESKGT

Consider `O=C(O)C1(Cn2cccn2)CC1`, for which the EC50 in experiment [1] and in experiment [2] was > 100 µM (inactive) throughout.

In the case of `NC(=O)C(c1ccccc1)c1c(Cl)cnn(Cc2cccc3ccccc23)c1=O` (centres undefined), the IC50 in experiment [3] and in experiment [4] was > 20 µM (inactive) in each case.
